The values that follow are results of earlier work, collected in patent publication US5300300A, “Controlled release gastroresistant pharmaceutical formulations for oral administration containing bile acids and their salts” (Alfa Wassermann S.p.A., priority 1991, dated 1994).

For data set [1] the following is noted: complete solubilization takes place only at this pH.

Consider `C[C@H](CCC(=O)O)[C@H]1CC[C@H]2[C@@H]3[C@@H](O)C[C@@H]4C[C@H](O)CC[C@]4(C)[C@H]3CC[C@]12C` [ursodeoxycholic acid], for which the “dissolution in the intestine” value (after having crossed the stomach unabsorbed and undissolved) was “dissolve very slowly in the intestine”. Further, the “intestinal pH needed for complete solubilization and absorption” value (intestinal pH, completely solubilized and absorbed only when exceeded) was > 8.4 pH. In addition, in data set [1], the “pH of complete solubilization” value was 8.47 pH.
